Tests used:
[1] = tested on: carbon tetrachloride-induced liver fibrosis; assay: Carbon tetrachloride-induced liver fibrosis model in mice; assay type: in vivo; settings: CCl4 4 weeks, oral, twice a day (30 mg/kg BID)
Experimental: CCl4 was administered intraperitoneally at 50 uL (1:1 corn oil) per mouse three times a week for 4 weeks, and the test compound was suspended in 0.5% methylcellulose and administered orally at a dose of 5 ml/kg daily. As a positive control, obeticholic acid (Medkoo, US) was administered at a dose of 30 mg/kg. Body weight was measured once a week during the study period. 28 days after CCl4 administration, […] were inhalationally anesthetized with ether, and once anesthesia was confirmed, they were laparotomized and blood was drawn using a syringe from the posterior vena cava, and then the abdominal aorta and posterior vena cava were cut to exsanguinate/death. Blood was separated into serum and blood biochemical tests were performed. The liver was removed and weighed, the right lobe was fixed in 10% neutral buffered formalin solution, and the left lobe was divided in half and quick-frozen in liquid nitrogen. The quick-frozen samples were stored in an ultra-low temperature freezer set below −70° C. and used for 4-Hydroxyproline assay. The fixed tissues were subjected to the usual tissue processing procedures such as cutting, dehydration, paraffin embedding, and sectioning to prepare specimens for histopathological examination. Hematoxylin & Eosin (H&E) and Picrosirius red staining were performed, and histopathological changes were observed using optical microscope (Olympus BX53, Japan), and the area of fibrosis was analyzed. To determine the extent of carbon tetrachloride-induced liver tissue damage and liver function, plasma alanine aminotransferase (ALT) and bilirubin levels were analyzed in the plasma collected from autopsy using a blood biochemistry analyzer (7180 Hitachi, Japan). […] As liver fibrosis progresses, collagen is deposited in liver tissue. The content of 4-hydroxyproline in collagen in a carbon tetrachloride-induced injured liver tissue was analyzed to determine the extent of fibrosis.

HSP47 = target: T1, HSP47 (Homo sapiens, UniProt P50454); assay: Evaluation of HSP47 activity (inhibition of collagen fibril formation, OD 340 nm); assay type: biochemical; settings: collagen fibril formation in PBS pH 7.4, 37° C.; HSP47 9.45 μg/ml; Prism
T1 construct: purchased GenScript US
Experimental: Fibrils were formed by adding 180 ul of phosphate-buffered saline (PBS, pH 7.4) solution to 20 ul of collagen dissolved in acidic solution (collagen solution, UK), which was measured at a wavelength of 340 nm. HSP47 (GenScript US) was added at a concentration of 9.45 μg/ml to evaluate HSP47 activity as the degree to which it inhibits fibril formation. Test compound was added with concentrations of 100 μM to 1 μM and the inhibitory activity of HSP47 was calculated as a percentage.
The OD measured when collagen was placed in PBS buffer (pH 7.4) to form fibrils at 37° C. was taken as 100%, and the OD measured when HSP47 and collagen were placed together to form fibrils was taken as 0%. The percentage of inhibition of HSP47 by the test compound at each concentration was measured. IC50 values were calculated using Prism software (Graphpad, USA).

[2] = tested on: KEL FIB cells isolated from keloid patients; assay: Sirius red assay, TGF-β1-induced fibrosis in dermal fibroblast KEL FIB cells; assay type: cell-based
Experimental: (§1) Hepatic stellate LX-2 (Elabscience CH), lung epithelial A549 (ATCC US), liver stellate T6 (Elabscience, CH), or skin KEL FIB (ATCC, US) cells were cultured in 24-well tissue culture plates for 18 hours, followed by TGF-beta 10 ng/ml treatment, and then incubated with test compounds for 24 hours. Cells were washed with PBS, fixed with Bouin's solution, and washed twice with distilled water. The fixed cells were stained with Sirius red for 2 hours to observe cellular morphological changes, and then washed with 0.01 N HCl solution. Collagen-bound Sirius red was extracted with 0.1 N NaOH solution, which was then quantified at a wavelength of 570 nm. The inhibitory efficacy of each compound on collagen production was shown as a percentage.
(§2) KEL FIB cells (ATCC, USA) isolated from keloid patients were treated with 10 ng/ml TGF-β1 to induce fibrosis, and the test compound was treated simultaneously. The extent of fibrosis inhibition was observed by fixing the cells and staining them with Sirius Red, a collagen-specific stain, to observe morphological changes (FIG. 8A, 8B), and quantified by extracting Sirius Red with 0.1 N NaOH solution (FIG. 9).

[3] = tested on: Lung epithelial cells A549; assay: Sirius red assay, TGF-β1-induced fibrosis in lung epithelial cells A549; assay type: cell-based
Experimental: as §1
as §2, with “Lung epithelial” for “KEL FIB”, “A549” for “(ATCC, USA) isolated from keloid patients”, “staining” for “staining them”, “6A, 6B),” for “8A, 8B),”, “7).” for “9).”

Hepatic stellate cell T6 = assay: Sirius red assay, TGF-β1-induced fibrosis in hepatic stellate cell T6; assay type: cell-based; settings: T6, 10 ng/ml TGF-β1 co-treatment, 30 μM; compared to the TGF-β1 treatment group
Experimental: as §1
as §2, with “Hepatic stellate cell T6 was” for “KEL FIB cells (ATCC, USA) isolated from keloid patients were”, “4A, 4B),” for “8A, 8B),”, “5).” for “9).”

[4] = tested on: Hepatic stellate cell LX-2; assay: Sirius red assay, TGF-β1-induced fibrosis in hepatic stellate cell LX-2; assay type: cell-based; settings: LX-2, 10 ng/ml TGF-β1 co-treatment; compared to the TGF-β1 treatment group; BBR 30 μM, 10 μM (FIG. 3)
Experimental: as §1
Hepatic stellate cell LX-2 was treated with 10 ng/ml TGF-β1 (Gibco, US) to induce fibrosis, and the benzbromarone (BBR) treatment group was treated with TGF-β1 and benzbromarone (BBR) simultaneously. The extent of fibrosis inhibition was observed by fixing the cells and staining them with Sirius Red, a collagen-specific stain, to observe morphological changes (FIG. 2A, 2B), and quantified by extracting Sirius Red with 0.1 N NaOH solution (FIG. 3).

[5] = tested on: burn-induced skin scarring; assay: Inhibition of burn-induced skin scarring in minipigs; assay type: in vivo, Yucatan minipigs; settings: 1% ointment once daily topical, day 45 of burn induction
Experimental: Yucatan minipigs that had been fasted for at least 8 hours were anesthetized using xylazine hydrochloride, midazolam, and propofol. After removing the hair on the trunk and back, the test area was disinfected with povidone iodine solution. Burns were induced by contacting the test area with a 400-gram stainless steel weight for 40 seconds. Burns were applied 2 cm from the spine and 4 cm apart between burn sites. The burn area should not exceed 3.5% of the total animal area. 15 days after burning, the scab was removed and the test compound was applied to the wounds once daily. At 45 days after burn induction, autopsy was performed, and the wounds were fixed in formalin solution and H&E staining was performed to measure the thickness of the dermal layer. The test compound was suspended in propylene glycol (Yakuri pure chemicals, Japan) and made into a homogeneous suspension using an ultrasonic cleaner, which was then diluted in lanolin (Merck, USA) and petroleum jelly (Merck, USA) under 60° C. water bath to prepare an ointment. Each component of the prepared ointment is 1% (w/w) of the test compound, 20% (w/w) of propylene glycol, 15% (w/w) of lanolin, and 64% (w/w) of vaseline. […] The reduction of scar size and wound in the BBR treatment group (BBR 1%) was clearly shown numerically. […] Also, the numerical measurement of the hypertrophy of the dermis layer was shown in FIG. 15B, and the hypertrophy of the dermis layer was the lowest in the BBR treatment group (BBR 1%).

[6] = 10 ng/ml TGF-β1, Sirius Red quantified

T1 sequence (P50454 19-418, species assumed): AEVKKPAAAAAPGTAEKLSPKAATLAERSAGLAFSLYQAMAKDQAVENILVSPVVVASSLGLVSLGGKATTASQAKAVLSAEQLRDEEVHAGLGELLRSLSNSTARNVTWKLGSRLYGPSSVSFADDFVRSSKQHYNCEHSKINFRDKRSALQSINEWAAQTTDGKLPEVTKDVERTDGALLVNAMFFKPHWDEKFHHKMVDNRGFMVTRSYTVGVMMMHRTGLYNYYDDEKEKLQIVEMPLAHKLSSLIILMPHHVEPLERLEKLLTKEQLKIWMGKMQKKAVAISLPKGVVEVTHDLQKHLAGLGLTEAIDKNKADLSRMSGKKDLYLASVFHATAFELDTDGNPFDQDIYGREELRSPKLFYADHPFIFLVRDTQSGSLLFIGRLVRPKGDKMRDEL

With CCc1oc2ccccc2c1C(=O)c1cc(Br)c(O)c(Br)c1 [benzbromarone, (3,5-dibromo-4-hydroxyphenyl)-(2-ethyl-1-benzofuran-3-yl)methanone] as the compound, how does the “content of 4-hydroxyproline in liver tissue” value [1] read?
The value was “statistically significantly reduced”.

And the “plasma alanine aminotransferase (ALT)” value [1]?
The value was “Statistically significant decreases”.

What about the plasma bilirubin [1] of the same compound?
Its plasma bilirubin is “Statistically significant decreases”.

And the “fibrosis area of liver tissue” value ([1]; versus obeticholic acid 30 mg/kg)?
Its value is “comparable result with fibrosis inhibition as the obeticholic acid (OCA) treatment group”.

What about the IC50 (HSP47) of the same compound?
The IC50 was 133 µM.

And the “concentration at which the fibrosis inhibitory effect began to appear” value [2, 6]?
The value was 3 µM.

What about the “concentration from which fibrosis was significantly inhibited” value [2, 6] of the same compound?
Its value is ≥ 10 µM.

And the “fibrosis by Sirius Red staining (morphology)” value ([2]; 10 ng/ml TGF-β1 co-treatment, 30 μM)?
Its value is “fibrosis was reduced”.

And the “fibrosis by Sirius Red staining (morphology)” value ([3]; A549, 10 ng/ml TGF-β1 co-treatment, 30 μM)?
Its value is “fibrosis was reduced”.

And the IC50 ([3]; Homo sapiens, A549, 10 ng/ml TGF-β1, Sirius Red OD 570 nm, read-out: IC50 of fibrosis inhibition)?
The IC50 was 4.25 µM.

And the “degree of fibrosis (Sirius Red, quantified)” value (Hepatic stellate cell T6)?
Its value is “significantly reduced”.

What about the “degree of fibrosis (Sirius Red, quantified)” value [4] of the same compound?
The value was “significantly reduced”.

What about the “scar extent compared to positive control triamcinolone 0.1%” value [5] of the same compound?
Its value is “reduced”.

What about the “scar size and wound extent compared to control group (Vehicle)” value [5] of the same compound?
The value was “significantly reduced”.

And the “hypertrophy of the dermis layer (scar tissue thickness, H&E)” value ([5]; versus other groups)?
The value was “lowest”.

— patent publication US11951089B2, “Pharmaceutical composition for preventing or treating wound or scar, comprising benzbromarone” (INNOVO THERAPEUTICS INC., priority 2020, dated 2024)
